Assay [1] has as its system Candida albicans IFO 1270. In words: Growth inhibition of Candida albicans in Sabouraud's glucose broth (Test Example 1). The conditions noted are these: Candida albicans IFO 1270, Sabouraud's glucose broth. In kind it is cell-based. As to the method: To 9.8 mℓ of Sabouraud's glucose broth, 0.1 mℓ of cell suspension of Candida albicans IFO 1270 (1.0 x 10⁷ cells/mℓ) and 0.1 mℓ of test compound solution (1000 or 10 µg/mℓ) was added. The growth inhibition ratio (%) was determined. For comparison, cis-1-acetyl-4-[4-[[2-(2,4-dichrolophenyl)-2-(imidazol-1-ylmethyl)-1,3-dioxolan-4-yl]methoxy]phenyl]piperazine (Ketoconazole) was used as a reference compound (hereinafter referred to as compound A).

Assay [2] concerns Candida albicans IFO 1270. In words: Survival of mice intravenously inoculated with Candida albicans, oral treatment (Test Example 2). The class given is in vivo. The conditions noted are these: male ddy mice, i.v. Candida albicans IFO 1270 (1 x 10⁸ cells/kg); 10 mg/kg orally once a day for three days; 10th day from inoculation. Here is the method:
Six-week-old male ddy mice were used as test animals (10 animals per control group; 5 animals per test group). Each animal was intravenously inoculated with Candida albicans IFO 1270 (1 x 10⁸ cells/kg) which has been subcultured on Sabouraud's glucose agar at 37 °C for 24 hours.
After the inoculation, each test compound was orally administered at a dosage of 10 mg/kg to the animal once a day for consecutive three days.
On the 10th day from the inoculation, the survival rate was monitored.

On to `C/C(=C\c1ccc(C(=O)N2CCOCC2)cc1)C(O)(Cn1cncn1)c1ccc(F)cc1F` (racemic) [Compound No. 3], for which the “Growth Inhibition (%)” value was determined as 0% in assay [1] (0.1 µg/mℓ) and 76% in assay [1] (10 µg/mℓ). In assay [2], the “Rate of Survival (%)” value was found to be 40%.

For the molecule `C/C(=C\c1ccc(C#N)cc1)C(O)(Cn1cncn1)c1ccc(F)cc1F` (racemic) [Compound No. 5, 2-(2,4-Difluorophenyl)-2-[1-methyl-2(4-cyanophenyl)ethenyl]-1-triazolyl-2-ethanol], the “Growth Inhibition (%)” value was 72% in assay [1] (0.1 µg/mℓ) and 96% in assay [1] (10 µg/mℓ). In addition, the “Rate of Survival (%)” value in assay [2] stood at 100%.

For `C/C(=C\c1ccc(OC(F)(F)F)cc1)C(O)(Cn1cncn1)c1ccc(F)cc1F` (racemic) [Compound No. 6, 2-(2,4-Difluorophenyl)-2-[1-methyl-2-(4-trifluoromethoxyphenyl)ethenyl]-1-triazolyl-2-ethanol], the “Growth Inhibition (%)” value in assay [1] (0.1 µg/mℓ) is 63%; in assay [1] (10 µg/mℓ), 86%. Besides, the “Rate of Survival (%)” value in assay [2] was found to be 100%.

Consider `C/C(=C\c1ccc(CO)cc1)C(O)(Cn1cncn1)c1ccc(F)cc1F` (racemic) [compound 4], for which the results for the “Growth Inhibition (%)” value in assay [1] (0.1 µg/mℓ) and in assay [1] (10 µg/mℓ) were 8% and 65%, respectively. Besides, in assay [2], the “Rate of Survival (%)” value came to 40%.

For `C/C(=C\c1ccc(OCC(F)(F)C(F)F)cc1)C(O)(Cn1cncn1)c1ccc(F)cc1F` (racemic) [compound 7], the “Growth Inhibition (%)” value in assay [1] (0.1 µg/mℓ) was 60%; in assay [1] (10 µg/mℓ), 86%. Besides, in assay [2], the “Rate of Survival (%)” value is 100%.

For `C/C(=C\c1ccccn1)C(O)(Cn1cncn1)c1ccc(F)cc1F` (racemic) [compound 9], the “Growth Inhibition (%)” value in assay [1] (0.1 µg/mℓ) stood at 72%; in assay [1] (10 µg/mℓ) it was 84%. In addition, the “Rate of Survival (%)” value in assay [2] is 20%.

Consider `C/C(=C\c1cccs1)C(O)(Cn1cncn1)c1ccc(F)cc1F` (racemic) [compound 10], for which the “Growth Inhibition (%)” value stood at 13% in assay [1] (0.1 µg/mℓ) and 62% in assay [1] (10 µg/mℓ). Further, in assay [2], the “Rate of Survival (%)” value was determined as 40%.

Regarding `C/C(=C\c1ccc(C(=O)NNC=O)cc1)C(O)(Cn1cncn1)c1ccc(F)cc1F` (racemic) [compound 15], the entries for the “Growth Inhibition (%)” value in assay [1] (0.1 µg/mℓ) and in assay [1] (10 µg/mℓ) were 3% and 55%, respectively. Moreover, in assay [2], the “Rate of Survival (%)” value stood at 60%.

Regarding `C/C(=C\c1ccc(-c2nc[nH]n2)cc1)C(O)(Cn1cncn1)c1ccc(F)cc1F` (racemic) [compound 23], the “Growth Inhibition (%)” value in assay [1] (0.1 µg/mℓ) was 8%; in assay [1] (10 µg/mℓ), 67%.

Regarding `C/C(=C\c1ccc(SC(C)(C)C)cc1)C(O)(Cn1cncn1)c1ccc(F)cc1F` (racemic) [compound 26], the “Growth Inhibition (%)” value in assay [1] (0.1 µg/mℓ) was 48%; in assay [1] (10 µg/mℓ) it was 67%.

For `C/C(=C\Sc1ccc(F)cc1)C(O)(Cn1cncn1)c1ccc(F)cc1` (racemic) [compound 30], the “Growth Inhibition (%)” value in assay [1] (0.1 µg/mℓ) was determined as 11%; in assay [1] (10 µg/mℓ), 83%. Besides, the “Rate of Survival (%)” value in assay [2] came to 40%.

In the case of `C/C(=C\C#Cc1ccc(F)cc1)C(O)(Cn1cncn1)c1ccc(F)cc1F` (racemic) [compound 36], the “Growth Inhibition (%)” value in assay [1] (0.1 µg/mℓ) came to 71%; in assay [1] (10 µg/mℓ), 78%. Moreover, the “Rate of Survival (%)” value in assay [2] is 100%.

In the case of `C/C(=C\C=C\c1ccc(C(F)(F)F)cc1)C(O)(Cn1cncn1)c1ccc(F)cc1F` (racemic) [compound 37], the entries for the “Growth Inhibition (%)” value in assay [1] (0.1 µg/mℓ) and in assay [1] (10 µg/mℓ) were 50% and 78%, respectively. For the same molecule, the “Rate of Survival (%)” value in assay [2] worked out at 100%.

As for `CC(=O)N1CCN(c2ccc(OC[C@H]3CO[C@](Cn4ccnc4)(c4ccc(Cl)cc4Cl)O3)cc2)CC1` (relative stereo) [compound A, cis-1-acetyl-4-[4-[[2-(2,4-dichrolophenyl)-2-(imidazol-1-ylmethyl)-1,3-dioxolan-4-yl]methoxy]phenyl]piperazine, reference compound], the “Growth Inhibition (%)” value in assay [1] (0.1 µg/mℓ) turned out to be 62%; in assay [1] (10 µg/mℓ), 76%. Besides, the “Rate of Survival (%)” value in assay [2] worked out at 20%.

As for `CC(=Cn1cncn1)C(O)(Cn1cncn1)c1ccc(F)cc1` (centres unmarked) [Compound No. 14], the “Rate of Survival (%)” value in assay [2] came to 100%.

(Values after patent EP0613890A1, “Novel triazole compound, process for preparing the same and antifungal agent containing the same” (NIHON NOHYAKU CO., LTD., priority 1993, dated 1994).)
